{"source": "patent US20110028401A1", "about": "“CRIPTO BLOCKING MOLECULES AND THERAPEUTIC USES THEREOF” (CONSIGLIO NAZIONALE DELLE RICERCHE, priority 2009, published 2011)", "key": {"wild-type EBs [1]": {"system": "wild-type EBs", "assay": "QRT-PCR of cardiac and neuronal markers in EBs", "type": "cell-based, mouse", "conditions": "25 μM peptide, 13 day-old EBs", "procedure": "Total RNAs from 13 day-old EBs was extracted with TRIzol kit (Life Technologies Inc.) according to manufacturer's instructions. One microgram of total RNA was used for cDNA synthesis with SuperScript II reverse transcriptase (Life Technologies Inc.) and random hexamers. Quantitative Real time PCR was performed using SYBR Green PCR master mix (EuroClone), according to manufacturer's instructions. The primers used are described in Table S2."}, "Cripto/ALK-4 interaction": {"molecular_target": "T1, Cripto/ALK-4 interaction (Mus musculus, UniProt P51865)", "T1 construct": "the displacement of soluble recombinant Cripto from coated ALK-4 by the peptide pools was evaluated", "T1 sequence (P51865 18-156 limits assumed)": "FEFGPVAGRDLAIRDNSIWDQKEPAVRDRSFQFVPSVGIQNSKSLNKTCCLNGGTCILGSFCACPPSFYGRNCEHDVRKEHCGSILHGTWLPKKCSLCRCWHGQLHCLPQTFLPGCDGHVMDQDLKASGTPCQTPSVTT", "assay": "ELISA-based competition assay of Cripto/ALK-4 interaction", "type": "binding", "procedure": "To improve the overall solubility of the resulting mixtures, D-Glutamic (D-Glu), corresponding to building block 4 (Table S1) was initially chosen as the common, N-terminal residue. The total complexity of the library was therefore of 30^2=900 different peptides. In the first step of, the deconvolution process, the peptide pools were tested with a molar excess of 30000-fold (calculated for each single peptide) over Cripto (8.6×10^−10 M; FIG. 2. S1). Once identified an active pool(s), a dose-dependent inhibition using 200-, 500-, 1000-, 5000-, 12500 and 30000 fold excess was performed to confirm the inhibitory property (FIG. 3. S2). The first active pool selected was that labelled as 4-23-X (X indicated random positions), where “23” identified the amino acid L-Cysteine(S-benzyl) [L-Cys(Bzl)] (FIG. 3. S2). […] To finally investigate the N-terminal position, where D-Glu was initially arbitrarily placed, 30 single peptides labelled as B-23-23 were synthesized and submitted to the final screening (FIG. 5. S4 (a)). […]\nThe screening was performed by an ELISA (Enzime-Linked Immunosorbent Assay) assay. […] Finally, the plate was developed with o-phenylendiammine peroxidase substrate (Sigma-Aldrich) and the absorbance was read at 490 nm on a microplate reader (Biorad Benchmark). […]"}, "wild-type EBs [2]": {"system": "wild-type EBs", "assay": "Cardiomyogenesis (beating areas) in wild-type embryoid bodies", "type": "cell-based, mouse", "procedure": "Undifferentiated ESCs were cultured as previously described^55.\nGiven the neutralizing activity of the peptide, the authors then asked whether Cripto BP was able to block ALK-4/Smad2-dependent Cripto signalling in ESCs and thereby mimic the absence of cripto in an ESC differentiation assay. The authors first evaluated whether Cripto BP was able to prevent Cripto-induced Smad2 phosphorylation of serum starved 2 day-old cripto^−/− Embryoid Bodies (EBs), as assessed by Western blot analysis. Recombinant soluble Cripto protein stimulated Smad2 phosphorylation^35. This effect was not modified by the presence of increasing amounts of either Cripto DP or CP (2.5 μM and 25 μM) (FIG. 6a). […] The authors thus asked whether the neutralizing activity of Cripto BP on endogenous Cripto signalling was also able to block cardiomyogenesis in wild-type ESCs. To this end, 2 day-old wild-type EBs were treated with increasing amounts of either CP or Cripto BP, ranging from 5.0 to 25 μM, and the percentage of EBs containing beating areas was scored from days 8 to 12 of the differentiation (n=˜60 EBs/group; FIG. 6b). Given that the peptides were dissolved in DMSO, control untreated EBs were compared with DMSO treated EBs."}}}
{"smiles": "C[S+]([O-])CCC(N)C(=O)N[C@@H](CSCc1ccccc1)C(=O)N[C@@H](CSCc1ccccc1)C(=O)N[C@@H](CCCCNC(=O)[C@H](CSCc1ccccc1)NC(=O)[C@H](CSCc1ccccc1)NC(=O)[C@@H](N)CC[S+](C)[O-])C(=O)N[C@@H](CCCCNC(=O)[C@H](CCCCNC(=O)[C@H](CSCc1ccccc1)NC(=O)[C@H](CSCc1ccccc1)NC(=O)[C@@H](N)CC[S+](C)[O-])NC(=O)[C@H](CSCc1ccccc1)NC(=O)[C@H](CSCc1ccccc1)NC(=O)[C@@H](N)CC[S+](C)[O-])C(=O)NCC(=O)O", "note": "(stereo partly shown) [Cripto BP]", "values": [{"measurement": "expression of cardiac specific marker MLc2v", "setting": "wild-type EBs [1]", "value": "reduced"}, {"measurement": "expression of midbrain dopaminergic neuron markers (Pitx3, Wnt5a, Shh, TH, DAT)", "setting": "wild-type EBs [1]", "value": "showed expression of markers characteristic of developing midbrain dopaminergic neurons"}, {"measurement": "expression of pan neuronal marker NFM", "setting": "wild-type EBs [1]", "value": "induced"}, {"measurement": "inhibitory activity in final library screening", "setting": "Cripto/ALK-4 interaction; 30 single peptides B-23-23, 500- to 4000-fold excess, confirmed with HPLC purified molecule", "value": "optimal inhibitory activity"}, {"measurement": "IC50", "setting": "Cripto/ALK-4 interaction; estimated, ELISA competition, FIG. 1b, read-out: IC50 for blocking the interaction of Cripto and ALK-4", "value": 400, "unit": "nM"}, {"measurement": "rhythmically contracting (beating) EBs", "setting": "wild-type EBs [2]; 25 μM peptide, wild-type EBs, mean±SD", "value": "3.7%±3.5"}, {"measurement": "effect on the percentage of beating EBs (cardiomyogenesis)", "setting": "wild-type EBs [2]; 5.0 to 25 μM, scored days 8 to 12", "value": "dose-dependent inhibition of cardiomyogenesis"}]}
